Laboratory results reported in patent US20190136188A1, “4HPR AND ITS USE IN THE CULTURING OF HEMATOPOIETIC STEM CELLS” (UNIVERSITY HEALTH NETWORK, priority 2016, published 2019).

How the values were obtained:
sorted HSC, MPP or GMP = test: Cell cycle analysis with Ki67 and Hoescht by flow cytometry; type: cell-based, human; details: 2 uM 4HPR, day 2 or day 3
DEGS1 [1] = target: T1, DEGS1 (Homo sapiens, UniProt O15121); test: Lipid mass spectrometry (LC/MS) of sphingolipids, DEGS1 activity; type: cell-based
T1 construct: endogenous in cells; host or cells: lineage-depleted human cord blood (lin- CB) cells
T1 sequence (O15121 1-323): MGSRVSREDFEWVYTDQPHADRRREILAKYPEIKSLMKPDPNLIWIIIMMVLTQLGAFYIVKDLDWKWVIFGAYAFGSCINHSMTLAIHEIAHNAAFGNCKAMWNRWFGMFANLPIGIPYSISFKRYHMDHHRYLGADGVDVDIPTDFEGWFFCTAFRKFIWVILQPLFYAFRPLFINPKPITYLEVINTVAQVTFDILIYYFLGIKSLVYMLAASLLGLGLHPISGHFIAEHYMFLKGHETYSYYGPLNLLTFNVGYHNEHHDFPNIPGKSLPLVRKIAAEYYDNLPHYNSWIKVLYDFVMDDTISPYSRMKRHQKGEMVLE
Description: All experiments following are at this 4HPR concentration unless otherwise indicated. […] (C) LC/MS was used to profile the ceramide (Cer), dihydroceramide (dhCer), sphingosine (sph), dihydrosphingosine (dhSph), S1P and dihydro-S1P (dhS1P) levels in lin− CB cells cultured for 8 days with control or 4HPR (n=2).

[2] = tested on: CD34+CD38- (stem) and CD34+CD38+ (prog) cells; test: LC3II immunofluorescence with and without Baflomycin A1 (autophagy); type: cell-based, human; details: day 2, 2 uM 4HPR, in the presence of BAF; stem vs prog
Description: (A) Representative mmunofluorescence images taken by confocal microscopy for DAPI (blue) and LC3II staining (green) for CD34+CD38− cells (stem) following 2 days of treatment with DMSO control or 2 uM 4HPR with and without the autophagy inhibitor baflomycin A1 (BAF) to assay for basal autophagy and autophagic flux. (B) Quantitation of LC3II foci area as a percentage of total cell area for stem and prog (CD34+38+) cells from three independent CB using R and Image J software. (C) LCII foci area is increased with 4HPR treatment relative to control in the presence of BAF only in stem populations and not Prog populations. (D) Representative flow cytometry histogram plot of cyto-ID fluorescence intensity of control (black) and 4HPR (green) treated stem cells to assay for autophagic flux. Lower mean fluorescence intensity (MFI) indicates more turnover of autophagosomes and thus increased autophagic flux. […] (F) Cytokine withdrawal for 3 hours activates autophagic flux in CB stem cells to similar levels as 2 uM 4HPR as assayed by cyto-ID flow cytometry at day 2 post-treatment (n=3).
We hypothesize that such selective enhancement of CFC cloning efficiency with 4HPR treatment is a result of activating autophagy in HSC in human CB. Warr et all had previously shown that mouse HSC, but not comitted progenitors activate autophagy under stress stimuli. […]

DEGS1 [3] = details: prolong exposure at micromolar concentrations in vitro; cited from earlier work
[4] = lin-CB cells cultured 8 days, 2 uM 4HPR

With `CC1=C(/C=C/C(C)=C/C=C/C(C)=C/C(=O)Nc2ccc(O)cc2)C(C)(C)CCC1` [4HPR, N-(4hydroxyphenyl)retinamide] the “cell cycle transit (Ki67 and Hoescht)” value (sorted HSC, MPP or GMP) was “no significant difference between ctrl and 4HPR”, the “dhCer and dhSph levels” value (DEGS1 [1]; 8 day culture, alone or in combination with UM171 and SR1) was “increases dhCer and dhSph” and the “levels of the signaling lipid S1P” value (DEGS1 [1]; [4]) was “not altered”. For the same molecule, the “total ceramide compared to control” value (DEGS1 [1]; [4]) was “decrease total ceramide”, the “total dihydroceramide compared to control” value (DEGS1 [1]; [4]) was “increase total dihydroceramide” and the “LC3II foci area relative to ctrl (upregulation of autophagy)” value [2] was “only 4HPR-treated stem cells, but not prog cells exhibit an upregulation of autophagy”. For the same molecule, the DEGS1 activity (DEGS1 [3]) was “irreversibly inhibits DEGS1 activity”.
